Measurements from patent US20250375464A1, “FORMULATIONS FOR MODULATING MYC EXPRESSION” (FLAGSHIP PIONEERING INNOVATIONS V, INC., priority 2022, published 2025).

Columns and labels:
Hep 3B tumors = test: Hep 3B subcutaneous xenograft in nude mice, tumor volume
Experimental: In this example, 0.6 mg/ml LNP (MC3) formulated effector (dCas9-MQ1/GD-17) was delivered to tumor sites by intratumoral injection on day 1 and day 7 (20 μl/mice) in the test group animals. The control group mice were injected at the tumor site either with PBS or with 0.6 mg/ml LNP (MC3) control effector dCas9/GD-SafeHarbor (20 μl/mice). Each control and test group consisted of 6 animals having SubQ Hep3B Xenografts (250 mm^3). Changes in tumor volume for each group was measured every 3 days for 15 days. At the end of 15 days, the changes in mean tumor volume were measured using Paired T-test and was plotted.
(§1) Hep 3B tumor cells were implanted into the left flank of thirty female nude mice to induce tumor. Changes in tumor volume was measured and the treatment initiated when mean tumor volume reached approximately 100-150 mm^3. Mice were divided into treatment and control groups so that mean tumor volume in each group were approximately equal. Control groups were injected either with PBS or with MYCi975, a small molecule comparator. The mice in each group were injected intratumorally with PBS (every 5 days for 3 doses then switched to IV for 2 doses), intravenously with ZF9-MQ1 (every 5 days at 3 mg/kg) or intraperitoneally with MYCi975 (once daily for 5 days/week). All animals were weighed daily and assessed visually. Changes in tumor volume for each group were measured 3 times per week. Over the course of 22 days, the changes in body weight from baseline and the mean tumor volume were measured using Paired T-test and was plotted (FIG. 14A-B).
Hep 3B tumor cells were implanted into the left flank of seventy-two female nude mice to induce tumor. Changes in tumor volume was measured and the treatment initiated when mean tumor volume reached approximately 200 mm^3. Mice were divided into nine treatment groups (8 mice each) so that mean tumor volume in each group was approximately equal. The mice in each group were injected intravenously with PBS (every 5 days for 3 doses then every 3 days for 3 doses), ZF9-MQ1 at 1 mg/kg and 3 mg/kg (every 5 days for 3 doses then every 3 days for 3 doses), co-formulated ZF9-MQ1+ZF3-KRAB at 1 mg/kg and 3 mg/kg (every 5 days for 3 doses then every 3 days for 3 doses), negative control mRNA at 1 mg/kg and 3 mg/kg (every 5 days for 3 doses then every 3 days for 3 doses), intraperitoneal with MYCi975 at 100 mg/kg (once daily for 5 days per week) or intraperitoneal with cisplatin at 1 mg/kg (once every 15 days). All animals were weighed daily and assessed visually. Changes in tumor volume were measured 3 times per week.
Disease was induced in female nude mice by the implantation of Hep 3B tumor cells into the left flank. […] All animals were weighed daily and assessed visually. Tumors sizes were measured 3 times per week. […]

[1] = Overall animal (body) weight in the tumor studies (FIGS. 14-16, 20); type: in vivo, mice; conditions: doses as in the respective tumor study
[2] = Body weight and tolerability of tumor bearing mice
Experimental: as §1
All animals were weighed daily and assessed visually.

SKHEP1 tumors = test: SKHEP1 subcutaneous xenograft in nude mice; type: in vivo; conditions: 50 mg/kg orally daily
Experimental: Animals were dosed every 5 days.
Sorafenib was given daily at 50 mg/kg.

Hep3B-luc tumors = test: Orthotopic Hep3B-luc model, tumor bioluminescence; type: in vivo, mice (Fox Chase CB17 SCID; nude); conditions: nude mice
Experimental: Tumor progression was measured by luminescence. […] It is unclear whether this is related to treatment. […] Statistically significant differences were observed between treatment groups.
Sorafenib was given orally (PO) daily (QD) as a standard of care control. Tumor progression was measured by luminescence. No animal deaths were noted.

HEPG2 tumors = test: HepG2 subcutaneous xenograft in nude mice; type: in vivo; parameters: dose or concentration left out as unconfirmed

SMILES: Cc1sc2c(c1C)C(c1ccc(Cl)cc1)=N[C@@H](CC(=O)OC(C)(C)C)c1nnc(C)n1-2 [JQ1]
- increase in tumor volume (Hep 3B tumors; Example 44, 25 mg/kg alone, 12 days): did not significantly inhibit

SMILES: CNC(=O)c1cc(Oc2ccc(NC(=O)Nc3ccc(Cl)c(C(F)(F)F)c3)cc2)ccn1 [sorafenib]
- tumor growth relative to PBS controls (Hep 3B tumors; 50 mg/kg orally every day (Example 35)): statistically significant reduction in tumor growth
- tumor growth relative to PBS controls (Hep 3B tumors; Example 40, 50 mg/kg orally daily): statistically significant reduction in tumor growth
- tumor growth relative to PBS control (Hep 3B tumors; Example 43, 25 mg/kg QD alone, 16 days): did not significantly reduce tumor growth
- overall animal (body) weight, result in words [1]: initial drop in body weight with a later gain in overall body weight
- weight gain ([2]; SK-HEP-1 subcutaneous, 50 mg/kg orally daily): Statistically significant reductions in weight gain
- body weight ([2]; orthotopic Hep3B-luc, SCID mice, ZF9-MQ1+ZF3-KRAB 1.5-6 mg/kg every 5 days, sorafenib 50 mg/kg daily orally): initial drop in body weight
- tumor growth (SKHEP1 tumors): statistically significant reduction in tumor growth
- tumor luminescence relative to PBS controls (Hep3B-luc tumors; Example 45, 50 mg/kg orally daily): statistically significant reduction in tumor luminescence
- tumor luminescence relative to PBS controls (Hep3B-luc tumors; Example 46, 50 mg/kg PO QD): statistically significant reduction in tumor luminescence
- tumor growth (HEPG2 tumors): statistically significant reduction in tumor growth
